Data: PubChem BioAssay (NCI)
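Five compound concentrations were applied to cells in 96-well plates for 48 hours; endpoints were derived by simple linear interpolation of the resulting dose-response curve. GI50 is the concentration that inhibits growth by half. Definition used: TGI = concentration required for complete inhibition of growth.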

Assays:
Test in all cases: NCI-60 cell line screen, 48 h
K-562 leukemia = system: K-562 leukemia
KM12 colon = system: KM12 colon
MOLT-4 leukemia = system: MOLT-4 leukemia
SK-MEL-28 melanoma = system: SK-MEL-28 melanoma
A498 renal = system: A498 renal
IGROV1 ovarian = system: IGROV1 ovarian
M14 melanoma = system: M14 melanoma
TK-10 renal = system: TK-10 renal
OVCAR-5 ovarian = system: OVCAR-5 ovarian
COLO 205 colon = system: COLO 205 colon
NCI-H460 lung = system: NCI-H460 lung
HOP-92 NSCLC = system: HOP-92 NSCLC
HCT-116 colon = system: HCT-116 colon
RXF 393 renal = system: RXF 393 renal
SNB-19 CNS = system: SNB-19 CNS
UACC-62 melanoma = system: UACC-62 melanoma
OVCAR-3 ovarian = system: OVCAR-3 ovarian
ACHN renal = system: ACHN renal
SNB-75 CNS = system: SNB-75 CNS
SK-OV-3 ovarian = system: SK-OV-3 ovarian
HS 578T breast = system: HS 578T breast
SF-295 CNS = system: SF-295 CNS
SR leukemia = system: SR leukemia
PC-3 prostate = system: PC-3 prostate
SF-268 CNS = system: SF-268 CNS
SN12C renal = system: SN12C renal
SK-MEL-5 melanoma = system: SK-MEL-5 melanoma
NCI/ADR-RES ovarian = system: NCI/ADR-RES ovarian
OVCAR-8 ovarian = system: OVCAR-8 ovarian
T-47D breast = system: T-47D breast
MALME-3M melanoma = system: MALME-3M melanoma
RPMI-8226 leukemia = system: RPMI-8226 leukemia
LOX IMVI melanoma = system: LOX IMVI melanoma
A549 NSCLC = system: A549 NSCLC
MDA-MB-435 = system: MDA-MB-435
CCRF-CEM leukemia = system: CCRF-CEM leukemia
SF-539 CNS = system: SF-539 CNS
NCI-H522 lung = system: NCI-H522 lung
NCI-H226 lung = system: NCI-H226 lung
SW-620 colon = system: SW-620 colon
UACC-257 melanoma = system: UACC-257 melanoma
786-0 renal = system: 786-0 renal
HL-60(TB) leukemia = system: HL-60(TB) leukemia
HT29 colon = system: HT29 colon
CAKI-1 renal = system: CAKI-1 renal
UO-31 renal = system: UO-31 renal
DU-145 prostate = system: DU-145 prostate
BT-549 breast = system: BT-549 breast
U251 CNS = system: U251 CNS
SK-MEL-2 melanoma = system: SK-MEL-2 melanoma
HOP-62 NSCLC = system: HOP-62 NSCLC
MDA-MB-231 breast = system: MDA-MB-231 breast
HCC-2998 colon = system: HCC-2998 colon
NCI-H23 lung = system: NCI-H23 lung
HCT-15 colon = system: HCT-15 colon
MCF7 breast = system: MCF7 breast
OVCAR-4 ovarian = system: OVCAR-4 ovarian

## CS(=O)(=O)N1CCC(Nc2ncc(C(=O)c3c(F)cccc3F)c(N)n2)CC1
K-562 leukemia
  GI50: 20.4 µM
  TGI: > 25 µM
KM12 colon
  GI50: 8.67 µM
  TGI: > 25 µM
MOLT-4 leukemia
  GI50: 11.2 µM
  TGI: > 25 µM
SK-MEL-28 melanoma
  GI50: 18.6 µM
  TGI: > 25 µM
A498 renal
  GI50: 9.15 µM
  TGI: > 25 µM
IGROV1 ovarian
  GI50: 11.4 µM
  TGI: > 25 µM
M14 melanoma
  GI50: 19.4 µM
  TGI: > 25 µM
TK-10 renal
  GI50: 7.98 µM
  TGI: > 25 µM
OVCAR-5 ovarian
  GI50: 9.78 µM
  TGI: > 25 µM
COLO 205 colon
  GI50: 6.26 µM
  TGI: > 25 µM
NCI-H460 lung
  GI50: 4.25 µM
  TGI: > 25 µM
HOP-92 NSCLC
  GI50: 1.96 µM
  TGI: > 20.8 µM
HCT-116 colon
  GI50: 6 µM
  TGI: > 25 µM
RXF 393 renal
  GI50: 5.32 µM
  TGI: 17.9 µM
SNB-19 CNS
  GI50: 6.45 µM
  TGI: > 25 µM
UACC-62 melanoma
  GI50: 12.6 µM
  TGI: > 25 µM
OVCAR-3 ovarian
  GI50: 13.7 µM
  TGI: > 25 µM
ACHN renal
  GI50: 7.06 µM
  TGI: > 25 µM
SNB-75 CNS
  GI50: > 10.9 µM
  TGI: 24.3 µM
SK-OV-3 ovarian
  GI50: > 25 µM
  TGI: > 25 µM
HS 578T breast
  GI50: 15.1 µM
  TGI: > 25 µM
SF-295 CNS
  GI50: 11.2 µM
  TGI: > 25 µM
SR leukemia
  GI50: 3.79 µM
  TGI: > 18.5 µM
PC-3 prostate
  GI50: 4.8 µM
  TGI: > 25 µM
SF-268 CNS
  GI50: > 17.9 µM
  TGI: > 25 µM
SN12C renal
  GI50: 12.3 µM
  TGI: > 25 µM
SK-MEL-5 melanoma
  GI50: 7.65 µM
  TGI: > 25 µM
NCI/ADR-RES ovarian
  GI50: > 25 µM
  TGI: > 25 µM
OVCAR-8 ovarian
  GI50: 9.7 µM
  TGI: > 25 µM
T-47D breast
  GI50: 12 µM
  TGI: > 25 µM
MALME-3M melanoma
  GI50: 10.6 µM
  TGI: > 25 µM
RPMI-8226 leukemia
  GI50: 7.67 µM
  TGI: > 25 µM
LOX IMVI melanoma
  GI50: 9.9 µM
  TGI: > 25 µM
A549 NSCLC
  GI50: 6.14 µM
  TGI: > 25 µM
MDA-MB-435
  GI50: 11.1 µM
  TGI: > 25 µM
CCRF-CEM leukemia
  GI50: 9.91 µM
  TGI: > 25 µM
SF-539 CNS
  GI50: 9.36 µM
  TGI: > 25 µM
NCI-H522 lung
  GI50: > 13.1 µM
  TGI: > 25 µM
NCI-H226 lung
  GI50: 7.27 µM
  TGI: > 25 µM
SW-620 colon
  GI50: 5.73 µM
  TGI: > 25 µM
UACC-257 melanoma
  GI50: 13.2 µM
  TGI: > 25 µM
786-0 renal
  GI50: 12.6 µM
  TGI: > 25 µM
HL-60(TB) leukemia
  GI50: 8.65 µM
  TGI: > 25 µM
HT29 colon
  GI50: 10.1 µM
  TGI: > 25 µM
CAKI-1 renal
  GI50: 8.76 µM
  TGI: > 25 µM
UO-31 renal
  GI50: 12 µM
  TGI: > 25 µM
DU-145 prostate
  GI50: 9.76 µM
  TGI: > 25 µM
BT-549 breast
  GI50: > 20.7 µM
  TGI: > 25 µM
U251 CNS
  GI50: 6.33 µM
  TGI: > 25 µM
SK-MEL-2 melanoma
  GI50: > 20.9 µM
  TGI: > 25 µM
HOP-62 NSCLC
  GI50: 12.6 µM
  TGI: > 25 µM
MDA-MB-231 breast
  GI50: 11.9 µM
  TGI: > 25 µM
HCC-2998 colon
  GI50: 12.9 µM
  TGI: > 25 µM
NCI-H23 lung
  GI50: 8.6 µM
  TGI: > 25 µM
HCT-15 colon
  GI50: 11.8 µM
  TGI: > 25 µM
MCF7 breast
  GI50: 2.11 µM
  TGI: > 25 µM
OVCAR-4 ovarian
  GI50: > 13.5 µM
  TGI: > 25 µM
